This series can be described thus: Example 1 single dose study: safety. The settings on record: single dose up to 100 mg, healthy volunteers. The format is in vivo, human. The protocol: A single-center, randomized, double-blind, dose-rising study to determine the safety, pharmacokinetics, and pharmacodynamics of single doses of 1-(3-chloro-5-{[4-(4-chlorothiophen-2-yl)-5-(4-cyclohexylpiperazin-1-yl)thiazol-2-yl]carbamoyl} pyridin-2-yl)piperadine-4-carboxylic acid (Formula I) in normal healthy volunteers was performed. The starting dose of the drug of Formula I was 1 mg (expressed as free base). Successive dose cohorts received 3, 10, 20, 50, 75 and 100 mg. The drug substance in the form of the monomaleate salt was suspended in Ora-Plus® (purified water, microcrystalline cellulose, sodium carboxymethylcellulose, xanthan gum, citric acid, sodium phosphate, simethicone, potassium sorbate and methylparaben), a commercially available oral suspending vehicle manufactured by Paddock Laboratories, Inc. Minneapolis, Minn. The Ora-Plus® was diluted with purified water, USP in a 1:1 suspension before being used to suspend the drug substance powder in preparation for oral administration. Prior to administration, 30 mL of the Ora-Plus®/water vehicle was added to each bottle, shaken and then consumed by the subject for each of the 3, 10, 50 and 75 mg dose cohorts. This was followed by an additional 30 mL of vehicle that was added to the bottle as a wash solution, shaken and then consumed by the subject. […]

Take `O=C(Nc1nc(-c2cc(Cl)cs2)c(N2CCN(C3CCCCC3)CC2)s1)c1cnc(N2CCC(C(=O)O)CC2)c(Cl)c1` [Formula I, 1-(3-chloro-5-{[4-(4-chlorothiophen-2-yl)-5-(4-cyclohexylpiperazin-1-yl)thiazol-2-yl]carbamoyl}pyridin-2-yl)piperadine-4-carboxylic acid]: the “tolerability (drug-related clinical or laboratory adverse experiences)” value was “well tolerated”.

These data come from patent publication US20110224226A1, “COMPOSITIONS AND METHODS FOR INCREASING BLOOD PLATELET LEVELS IN HUMANS” (AKARX, Inc., priority 2006, published 2011).
